Source: PubChem BioAssay (NCI)
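How tested: cells in 96-well plates exposed to compound for 48 hours at five concentrations. The concentration for 50% growth inhibition is given as GI50. Definition used: TGI = concentration required for complete inhibition of growth.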

Assays:
Test in all cases: inhibition of tumour cell growth, NCI panel, 48 h
NCI/ADR-RES ovarian = tested on: NCI/ADR-RES ovarian
SK-OV-3 ovarian = tested on: SK-OV-3 ovarian
HCC-2998 colon = tested on: HCC-2998 colon
CAKI-1 renal = tested on: CAKI-1 renal
HS 578T breast = tested on: HS 578T breast
A498 renal = tested on: A498 renal
TK-10 renal = tested on: TK-10 renal
KM12 colon = tested on: KM12 colon
UACC-257 melanoma = tested on: UACC-257 melanoma
EKVX NSCLC = tested on: EKVX NSCLC

| SMILES | GI50 (NCI/ADR-RES ovarian) | TGI (NCI/ADR-RES ovarian) | GI50 (SK-OV-3 ovarian) | TGI (SK-OV-3 ovarian) | GI50 (HCC-2998 colon) | TGI (HCC-2998 colon) | GI50 (CAKI-1 renal) | TGI (CAKI-1 renal) | GI50 (HS 578T breast) | TGI (HS 578T breast) | GI50 (A498 renal) | TGI (A498 renal) | GI50 (TK-10 renal) | TGI (TK-10 renal) | GI50 (KM12 colon) | TGI (KM12 colon) | GI50 (UACC-257 melanoma) | TGI (UACC-257 melanoma) | GI50 (EKVX NSCLC) | TGI (EKVX NSCLC) |
| --- | --- | --- | --- | --- | --- | --- | --- | --- | --- | --- | --- | --- | --- | --- | --- | --- | --- | --- | --- | --- |
| COc1ccc(-c2nnc(SCC(=O)Nc3ccc(/C(C)=N\O)cc3)n2-c2ccccc2)cc1OC | > 100 µM | > 100 µM | 2.73 µM | 13.7 µM | > 100 µM | > 100 µM | > 100 µM | > 100 µM | 3.75 µM | > 100 µM | 2.72 µM | 46.1 µM | 11.3 µM | 52.7 µM | > 100 µM | > 100 µM | > 100 µM | > 100 µM |  |  |
| N#Cc1cccc(C(=O)Nc2cccc(NC(=O)c3cccc(C#N)c3)c2)c1 | 95.7 µM | > 100 µM | > 100 µM | > 100 µM | > 100 µM | > 100 µM | 6.95 µM | > 100 µM | 39 µM | > 100 µM |  |  | 52.5 µM | > 100 µM |  |  | > 100 µM | > 100 µM | > 100 µM | > 100 µM |
| Cc1ccc(NC(=O)c2cc3ccccc3c(N=Nc3ccccc3O)c2O)c(C)c1 |  | 5.71 µM |  | 16.7 µM |  | 18.7 µM |  | 11.4 µM |  | 8.29 µM |  |  |  | 24.5 µM |  | 14.8 µM |  | 20 µM |  | 17.3 µM |
| O=c1c2cccc3cccc(c4oc5c6cccc7cccc(c(=O)c5c14)c76)c32 |  |  |  | > 31.6 µM |  | > 31.6 µM |  | 45.9 µM |  |  |  | > 100 µM |  | 17.5 µM |  | 21.2 µM |  | 30 µM |  | 23.3 µM |
| O=C1Nc2ccccc2C1Cc1ccc([N+](=O)[O-])cc1 (stereo not drawn) |  | > 100 µM |  | > 100 µM |  | > 100 µM |  | > 100 µM |  | > 100 µM |  |  |  | > 100 µM |  | > 100 µM |  | > 100 µM |  | > 100 µM |
| CC1=C(C(=O)Nc2cccc(Cl)c2)C(c2ccc([N+](=O)[O-])cc2)C(C(=O)Nc2cccc(Cl)c2)=C(C)N1 |  |  |  | 48.9 µM |  | 48.2 µM |  |  |  |  |  | > 100 µM |  | > 100 µM |  | 52.9 µM |  | 38.2 µM |  | > 100 µM |
| O=C1/C(=C/c2ccc([N+](=O)[O-])o2)Oc2ccc(Br)cc21 | 10.9 µM | 42 µM | 17.6 µM | 32.2 µM | 8.01 µM | 27.5 µM | 2.31 µM | 6.59 µM | 3.91 µM | 26.9 µM | 15.9 µM | 30.1 µM | 2.11 µM | 3.88 µM | 3.85 µM | 13 µM | 2 µM | 4.38 µM |  |  |
| CCCCCCCCC(=O)N(C)C1C2CN3CCC(O2)C13 (stereo not drawn) |  |  |  | > 100 µM |  | > 100 µM |  | > 100 µM |  |  |  | > 100 µM |  | > 100 µM |  | > 100 µM |  | > 100 µM |  | > 100 µM |
| O=C1/C(=C/c2ccc3c(c2)OCO3)CCC1CN1CCOCC1 (stereo not drawn) |  |  |  | 32.9 µM |  | 17.4 µM |  | 9.21 µM |  | 14.8 µM |  | 23.9 µM |  | 21.6 µM |  | 11 µM |  | 22.6 µM |  | 34.7 µM |
| O=c1c2cc(Br)ccc2nc(-c2ccccc2Cl)n1NCC1(O)OCC(O)C(O)C1O (stereo not drawn) |  |  |  | > 100 µM |  |  |  | > 100 µM |  |  |  | > 100 µM |  |  |  | > 100 µM |  | > 100 µM |  | > 100 µM |
| Fc1cccc2cc3ccc4cccc5ccc(c12)c3c45 |  |  |  | > 100 µM |  | > 100 µM |  | > 100 µM |  |  |  | > 100 µM |  | > 100 µM |  | > 100 µM |  | > 100 µM |  | > 100 µM |
| O=c1c(Sc2c(O)c3ccccc3c3ccccc3c2=O)c(O)c2ccccc2c2ccccc12 |  |  |  | > 100 µM |  | > 100 µM |  | > 100 µM |  |  |  |  |  | > 100 µM |  | > 100 µM |  | > 100 µM |  | > 100 µM |
| NC(=NC1CCCCCCC1)c1ccc(N2CCN(c3ccc(C(N)=NC4CCCCCCC4)cc3)CC2)cc1 | > 100 µM | > 100 µM | 15.2 µM | 34.9 µM | 14.4 µM | 48 µM | 23.1 µM | 63.1 µM |  |  |  |  | 10.9 µM | 34.2 µM | 5.3 µM | 19.1 µM |  |  |  |  |
| CC(=O)NCCSC(=O)c1ccccc1 |  | 0.688 µM |  | 14.8 µM |  |  |  | 0.239 µM |  | 5.52 µM |  |  |  | 0.475 µM |  | 2.54 µM |  | 0.419 µM |  | 8.24 µM |
| COC(=O)C1C2C=CC(C2)C1(C(=O)OC)S(=O)CC12CCC(CC1O)C2(C)C (stereo not drawn) |  |  |  | > 100 µM |  | > 100 µM |  | > 100 µM |  |  |  | > 100 µM |  | > 100 µM |  | > 100 µM |  | > 100 µM |  | > 100 µM |
| Cn1ccc2c(c1=O)C(=O)c1nccc3c1c-2nc1ccccc13 |  |  | 1.74 µM | 3.15 µM | 1.72 µM | 3.15 µM | 1.44 µM | 2.85 µM |  |  | 12.5 µM | 25.9 µM |  |  |  |  |  |  | 1.65 µM | 3.16 µM |
| CC(=O)Nc1ccc(/C=N\N2C(=O)c3ccccc3C2=O)cc1 |  |  |  |  |  | > 100 µM |  | > 100 µM |  |  |  | > 100 µM |  | > 100 µM |  | > 100 µM |  | > 100 µM |  | > 100 µM |
| Cn1c(=O)c(Oc2ccc(F)cc2F)cc2cnc(NC(CO)CO)nc21 | > 25 µM | > 25 µM | > 25 µM | > 25 µM | > 25 µM | > 25 µM | > 25 µM | > 25 µM | > 25 µM | > 25 µM | > 25 µM | > 25 µM | > 25 µM | > 25 µM | > 25 µM | > 25 µM | > 25 µM | > 25 µM |  |  |
| C[C@]12CC[C@@H]3c4ccc(O)cc4CC[C@H]3[C@@H]1CC[C@@H]2NS(=O)(=O)c1cccc(C(F)(F)F)c1 | 3.73 µM | 16.9 µM | 4.78 µM | 15.3 µM | 4.58 µM | 17.9 µM | 3.23 µM | 11.8 µM | 3.24 µM | 15.6 µM | 2.7 µM | 8.75 µM | 4.05 µM | 13.3 µM | 3.4 µM | 11.8 µM | 3.54 µM | 15.7 µM |  |  |
| c1cc(CCN2CCCCC2)ccn1 |  | > 100 µM |  | > 100 µM |  |  |  | > 100 µM |  | > 100 µM |  | > 100 µM |  | > 100 µM |  | > 100 µM |  | > 100 µM |  | > 100 µM |
